Data published in US20200254059A1, “THERAPEUTIC AGENT OF UREMIA CONTAINING ALARIN AS THE MAIN INGREDIENT” (JU TIDE CO., LTD., priority 2017, published 2020).
“Also recorded” adds a separate entry of the source.

Columns and labels:
Assay type in all cases: in vivo
[1] = Body weight in cisplatin-induced uremia Sprague-Dawley rat model; conditions: all test substance-administered groups (10 and 20 μg/head, single IV dose 8 h after cisplatin 5 mg/kg IP); Day 7; versus normal control group
Experimental: Cisplatin-induced uremia was evaluated for the effect of administration of test substance on an improvement of uremia in the Sprague-Dawley rat model. […] Cisplatin was intraperitoneally administered (IP) and test substance was intravenously administered (IV).

Cisplatin-induced uremia [2] = test: Blood biochemical test (serum BUN and CRE) in cisplatin-induced uremia Sprague-Dawley rat model
Experimental: (§1) The intravenous administration was done by fixing an animal into a correction frame, and slowly injecting at a rate of within 1 mL/min through the micro vein using a syringe equipped with 26 gauges needle. The intraperitoneal administration was performed by fixing the animal by a transdormal skin fixation method and intraperitoneally injecting using a syringe equipped with 26 gauges needle.
Serum obtained from the centrifugation was tested for blood urea nitrogen (BUN) and […] (CRE) using a blood biochemical analyzer (7180 Hitachi, Japan).

Cisplatin-induced uremia [3] = test: Kidney histopathological examination in cisplatin-induced uremia Sprague-Dawley rat model
Experimental: as §1
Finally, animals were inhaled with ether on an necropsy day to anesthetize and euthanize, and kidneys were extracted and fixed in a 10% neutral buffered formalin solution, and the fixed tissues were cut, dehydrated, paraffin embedded and hematoxylin & eosin stained to make a specimens for histopathological examination after these histological treatment. And then, the obtained specimen is subjected to speculum using an optical microscope (Olympus BX53, Japan).

[4] = serum, high dose group (20 μg/1 mL/head, single IV), versus induced control group given excipient

Substance: H-Ala-Pro-Ala-His-Arg-Ser-Ser-Thr-Phe-Pro-Lys-Trp-Val-Thr-Lys-Thr-Glu-Arg-Gly-Arg-Gln-Pro-Leu-Arg-Ser-OH-trifluoroacetate salt (H-APAHRSSTFPKWVTKTERGRQPLRS-OH; also: trifluoroacetate salt) [test substance, human-derived alarin, peptide derived from a splice variant of galanin-like peptide (GALP) RNA]
- weight level measured on the day of necropsy [1]: no significant difference
- improvement of uremia (overall conclusion) (Cisplatin-induced uremia [2]; cisplatin-induced uremia model, conclusion from blood biochemistry and histopathology): have an effect on the improvement of uremia
- blood urea nitrogen (BUN) level (Cisplatin-induced uremia [2]; [4]): significantly lower; also recorded: significant difference
- creatinine (CRE) level (Cisplatin-induced uremia [2]; [4]): significantly lower; also recorded: significant difference
- blood biochemical level (Cisplatin-induced uremia [2]; single dose of 10 μg/1 mL/head and 20 μg/1 mL/head IV, versus control group of excipient): tendency to improve
- histopathological examination results, lesion level across doses (Cisplatin-induced uremia [3]; 10 and 20 μg/1 mL/head, single IV dose): dose-related change trend and significant changes in lesion level
- level of lesion, histopathological examination of kidney (Cisplatin-induced uremia [3]; high dose group (20 μg/head, single IV), H&E stained kidney, Day 7, versus control group): significantly lower
